Results: paper PMC9967700, “Metabolism-Guided Optimization of Tryptophanol-Derived Isoindolinone p53 Activators” (Pharmaceuticals, 2023)
Read-outs that look alike come from different tables or passages of the source.

Columns and labels:
HCT116 p53+/+ cells = experiment: Antiproliferative activity, sulforhodamine B (SRB) assay; format: cell-based, human; details: for S.I. (selectivity index): HCT116 p53−/− versus HCT116 p53+/+; for increase in the antiproliferative activity on bromine insertion at the C-2 indole: versus non-brominated parent isoindolinone
Method: (§1) Tumor cells were cultured in RPMI-1640 with UltraGlutamine (Lonza, VWR), supplemented with 10% fetal bovine serum (FBS; Gibco, Alfagene) and maintained in a humidified incubator at 37 °C with 5% CO2. Cell lines were seeded in 96-well plates at the cells/well density of 5.0 × 10^3.

HCT116 p53−/− cells = experiment: as above; format: cell-based, human
Method: as §1

[1] = biological target: T1, wt p53 core domain (DNA Binding Domain; p53DBD; residues 94–312) (Homo sapiens, UniProt P04637); experiment: Differential scanning fluorimetry (DSF) thermostability; details: 13d 2.5 mM, MQ 2 mM; for Tm of the wt p53DBD: 5% DMSO, mean ± SD, three assays
T1 construct: residues 94–312; host or cells: E. coli BL21 (DE3)-[pLys-S]
Method: Expression of wt p53 core domain. The wt p53DBD was expressed in E. coli BL21 (DE3)-[pLys-S] in fusion with an N-terminal 21-residue tag containing the hexa-histidyl peptide (His6) and the thrombin recognition sequence, using the pET15b-based expression construct.
For protein expression 10 mL of an overnight (ON) culture was used to inoculate 1 L of LB medium supplemented with 1 mL of ampicillin 100 mg/mL and 1mL of zinc sulphate 100 mM. Culture medium was incubated at 37 °C, 140 rpm till an OD600nm of ~0.5. Protein expression was then induced by adding 0.5 mL of isopropyl β-D-1-thiogalactopyranoside (IPTG) 1M (Cfinal = 0.5 mM) and bacterial growth at 27 °C, 120 rpm ON. E. coli cells were pelleted by centrifugation for 10 min, 4000 rpm, at 4 °C. The cellular pellet was resuspended in 10 mL of Lysis buffer (Sodium phosphate 50 mM; NaCl 300 mM; glycerol 10%, pH 7.4) supplemented with 1mg/mL Lysozyme (Biochemica Applichem Panreac), 1 mM of phenylmethanesulfonyl fluoride (PMSF) (Merck), 5 µg of DNAse I (Panreac applichem) and 0.8% of Triton X-100 (Merck). After a first step of chemical lysis (30 min incubation, at 4 °C), cells were further disrupted by four cycles of sonication, at 4 °C, during 60 s at 50% duty free cycle on a Vibra Cell (Media Cibernetics). The lysate was subsequently cleared by centrifugation at 10,000 rpm, 40 min, at 4 °C and the supernatant containing the soluble proteins were collected.
Purification of human wt p53DBD and His6-tag removal. Immobilized Metal Affinity Chromatography (IMAC) was performed to purify the wt p53DBD using a nickel-nitrilotriacetic acid (Ni-NTA) agarose resin (QIAGEN). Briefly, 1 mL of Ni^2+ resin was pre-equilibrated using MilliQ water (3 × 1 mL) and Lysis buffer containing 10 mM imidazole (3 × 1 mL). The soluble fraction of cellular lysate was supplemented with 6.8 µL of β-mercaptoethanol and 33.2 µL of imidazole 3 M to obtain the final concentrations of […] and 10 mM, respectively. The lysate was added to the pre-equilibrated resin and protein binding was performed by incubation on an orbital shaker for one hour at 4 °C. The suspension was added to a 9 cm polypropylene conical column (Poly-Prep columns; BioRad) and protein purification was performed by gravity flow with an imidazole gradient consisting of three washing steps (2 × 5 mL of Lysis buffer, 20 mM imidazole; 2 × 5 mL of Lysis buffer, 50 mM imidazole; and 1 × 2.5 mL Lysis buffer, 75 mM imidazole) and an elution step with 5 × 500 µL of Lysis buffer, 250 mM imidazole. Protein eluted fractions were assessed by SDS-PAGE and Coomassie staining. Size exclusion chromatography was performed on the pooled protein eluted fractions, using an AKTA prime plus system (GE Healthcare) equipped with a UV detector (280 nm), a HiLoad 16/60, Superdex 200 prep grade column (GE Healthcare) and SEC buffer (25 mM potassium phosphate buffer, 150 mM NaCl, pH 7.5). The fractions corresponding to the wt p53DBD monomers were collected and treated with thrombin (8 units of thrombin/mg wt p53DBD). The thrombin cleavage was conducted for 18 h at rt at pH 7.4 in the assay buffer recommended by the supplier. Before and after digestion protein concentration was determined through Bradford method.
Thermostability of wt p53DBD core domain assessed by differential scanning fluorimetry (DSF). An amount of 5 μg of thrombin-cleaved wt p53DBD was incubated with testing compounds (2.5 mM) in 25 mM potassium phosphate buffer and 150 mM NaCl, pH 7.5 in a final volume of 50 µL containing 2 µL of 1 mM DTT or 1 mM TCEP to promote p53 core domain redox control, and Sypro Orange at 2.5x final concentration. The fluorescence was assessed on a C1000 Touch thermal cycler equipped with a CFX96 optical reaction module (BioRad) and the FRET channel (λexc 450–490 nm and λem 560–580 nm). Temperature was ramped from 20 to 90 °C with a rate of 0.2 °C/12 sec. The Tm values were calculated using Origin 8 Software. […]

[2] = Homo sapiens, HCT-116, 48 h treatment, mean ± SEM of 3–5 independent experiments, read-out: HCT116 p53+/+ GI50
[3] = Homo sapiens, HCT-116, 48 h, 48 h treatment, mean ± SEM of 3–5 independent experiments, read-out: HCT116 p53−/− GI50
[4] = Homo sapiens, HCT-116, 48 h treatment, mean ± SEM of 5 independent experiments, read-out: HCT116 p53+/+ GI50
[5] = Homo sapiens, HCT-116, 48 h, 48 h treatment, mean ± SEM of 5 independent experiments, read-out: HCT116 p53−/− GI50

T1 sequence (P04637 94-312): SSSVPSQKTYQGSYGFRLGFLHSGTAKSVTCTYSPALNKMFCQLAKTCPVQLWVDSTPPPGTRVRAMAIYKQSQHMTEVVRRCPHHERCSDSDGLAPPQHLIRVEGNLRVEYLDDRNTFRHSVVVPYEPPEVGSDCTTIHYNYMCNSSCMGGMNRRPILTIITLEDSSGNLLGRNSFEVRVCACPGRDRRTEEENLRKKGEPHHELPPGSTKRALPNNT

Row | Compound | GI50 (HCT116 p53+/+ cells; [2]) [µM] | GI50 (HCT116 p53−/− cells; [3]) [µM] | S.I. (selectivity index) (HCT116 p53+/+ cells) | other results
1 | CCCn1c(Br)c(C[C@@H]2CO[C@@]3(c4ccccc4)c4ccccc4C(=O)N23)c2ccccc21 [13d′, (3R, 9bS)-3-((2-bromo-1-propyl-1H-indol-3-yl)methyl)-9b-phenyl-2,3-dihydrooxazolo[2,3-a]isoindol-5(9bH)-one] | 31.1 ± 4 | 25.4 ± 1.2 | – | –
2 | O=C1c2ccccc2[C@@]2(c3ccccc3)OC[C@H](Cc3c(Br)[nH]c4ccccc34)N12 [Compound 13a, (3S, 9bR)-3-((2-bromo-1H-indol-3-yl)methyl)-9b-phenyl-2,3-dihydrooxazolo[2,3-a]isoindol-5(9bH)-one] | 14.6 ± 0.4 | 10.5 ± 2.6 | 0.7 | –
3 | Cn1c(Br)c(C[C@H]2CO[C@]3(c4ccccc4)c4ccccc4C(=O)N23)c2ccccc21 [Compound 13c, (3S, 9bR)-3-((2-bromo-1-methyl-1H-indol-3-yl)methyl)-9b-phenyl-2,3-dihydrooxazolo[2,3-a]isoindol-5(9bH)-one] | 25.6 ± 1.4 | 10.8 ± 2 | 0.4 | –
4 | O=C1c2ccccc2[C@@]2(c3ccc(F)cc3)OC[C@H](Cc3c(Br)[nH]c4ccccc34)N12 [Compound 13g, (3S, 9bR)-3-((2-bromo-1H-indol-3-yl)methyl)-9b-(4-fluorophenyl)-2,3-dihydrooxazolo[2,3-a]isoindol-5(9bH)-one] | 6.95 ± 0.6 | 6.7 ± 1.6 | 1.0 | increase in the antiproliferative activity on bromine insertion at the C-2 indole (HCT116 p53+/+ cells): 1.2 fold
5 | O=C1c2ccccc2[C@@]2(c3ccc(Cl)cc3)OC[C@H](Cc3c(Br)[nH]c4ccccc34)N12 [Compound 13h, (3S, 9bR)-3-((2-bromo-1H-indol-3-yl)methyl)-9b-(4-chlorophenyl)-2,3-dihydrooxazolo[2,3-a]isoindol-5(9bH)-one] | 5.8 ± 0.3 | 5.8 ± 0.4 | 1.0 | increase in the antiproliferative activity on bromine insertion at the C-2 indole (HCT116 p53+/+ cells): 1.5 fold
6 | O=C1c2ccccc2[C@@]2(c3ccc(Cl)c([N+](=O)[O-])c3)OC[C@H](Cc3c(Br)[nH]c4ccccc34)N12 [Compound 13i, (3S, 9bR)-3-((2-bromo-1H-indol-3-yl)methyl)-9b-(4-chloro-3-nitrophenyl)-2,3-dihydrooxazolo[2,3-a]isoindol-5(9bH)-one] | 23.3 ± 0.9 | 22.2 ± 1.2 | 1.0 | –
7 | CCn1c(Br)c(C[C@H]2CO[C@]3(c4ccccc4)c4ccccc4C(=O)N23)c2ccccc21 [Compound 13j, (3S, 9bR)-3-((2-bromo-1-ethyl-1H-indol-3-yl)methyl)-9b-phenyl-2,3-dihydrooxazolo[2,3-a]isoindol-5(9bH)-one] | 13 ± 1.01 | 16 ± 2 | 1.2 | –
8 | O=C1c2ccccc2[C@@]2(c3ccccc3)OC[C@H](Cc3c(Br)n(C(=O)c4ccccc4)c4ccccc34)N12 [Compound 13l, (3S, 9bR)-3-((1-benzoyl-2-bromo-1H-indol-3-yl)methyl)-9b-phenyl-2,3-dihydrooxazolo[2,3-a]isoindol-5(9bH)-one] | 23.2 ± 1.15 | > 50 | – | –
9 | CC(=O)n1c(Br)c(C[C@H]2CO[C@]3(c4ccccc4)c4ccccc4C(=O)N23)c2ccccc21 [Compound 13m, (3S, 9bR)-3-((1-acetyl-2-bromo-1H-indol-3-yl)methyl)-9b-phenyl-2,3-dihydrooxazolo[2,3-a]isoindol-5(9bH)-one] | 13.05 ± 0.05 | 22.5 ± 2.5 | 1.7 | –
10 | CS(=O)(=O)n1c(Br)c(C[C@H]2CO[C@]3(c4ccccc4)c4ccccc4C(=O)N23)c2ccccc21 [Compound 13n, (3S, 9bR)-3-((2-bromo-1-(methylsulfonyl)-1H-indol-3-yl)methyl)-9b-phenyl-2,3-dihydrooxazolo[2,3-a]isoindol-5(9bH)-one] | 12.5 ± 0.5 | 13.5 ± 0.5 | 1.1 | –
11 | Cc1ccc(S(=O)(=O)n2c(Br)c(C[C@H]3CO[C@]4(c5ccccc5)c5ccccc5C(=O)N34)c3ccccc32)cc1 [Compound 13o, (3S, 9bR)-3-((2-bromo-1-tosyl-1H-indol-3-yl)methyl)-9b-phenyl-2,3-dihydrooxazolo[2,3-a]isoindol-5(9bH)-one] | 34 ± 4 | 20.4 ± 1.15 | 0.6 | less active derivative compared with SLMP53-2 (7) (HCT116 p53+/+ cells; HCT116 p53+/+): 4.0 fold
12 | C=C1C(=O)C2CCN1CC2 [MQ, Methylene quinuclidinone, reference compound] | – | – | – | ΔTm of the wt p53DBD ([1]; DTT 1 mM): 2.28 °C; Tm of the wt p53DBD ([1]; DTT (1 mM)): 42.22 ± 0.30 °C; ΔTm of the wt p53DBD ([1]; TCEP 1 mM): 2.11 °C; Tm of the wt p53DBD ([1]; TCEP (1 mM)): 43.27 ± 1.15 °C
13 | C[C@]12OC[C@H](C[C@@H]3C(=O)Nc4ccccc43)N1C(=O)c1ccccc12 [SLMP53-1_M3a, (3S,9bR)-9b-methyl-3-(((S)-2-oxoindolin-3-yl)methyl)-2,3-dihydrooxazolo[2,3-a]isoindol-5(9bH)-one] | – | – | – | GI50 (HCT116 p53+/+ cells; [4]): > 50 µM; GI50 (HCT116 p53−/− cells; [5]): > 50 µM
14 | C[C@]12OC[C@H](C[C@H]3C(=O)Nc4ccccc43)N1C(=O)c1ccccc12 [SLMP53-1_M3b, (3S,9bR)-9b-methyl-3-(((R)-2-oxoindolin-3-yl)methyl)-2,3-dihydrooxazolo[2,3-a]isoindol-5(9bH)-one] | – | – | – | GI50 (HCT116 p53+/+ cells; [4]): > 50 µM; GI50 (HCT116 p53−/− cells; [5]): > 50 µM
15 | COc1ccc(C2=N[C@@H](c3ccc(Cl)cc3)[C@@H](c3ccc(Cl)cc3)N2C(=O)N2CCNC(=O)C2)c(OC(C)C)c1 [nutlin-3a, reference compound] | – | – | – | GI50 (HCT116 p53+/+ cells; control of the SRB assay, 48 h, read-out: GI50 in HCT116 p53+/+): 3.2 ± 1 µM; GI50 (HCT116 p53−/− cells; control of the SRB assay, 48 h, read-out: GI50 in HCT116 p53−/−): 24 ± 0.7 µM
